Data as given in the NIST ThermoML archive (doi:10.1016/j.fluid.2007.10.016).
Numbers after ± are expanded uncertainties.

Tests used:
[1] = refractive index (Na D-line) (dimensionless); settings: 298.15 K; 101.33 kPa; Liquid; Standard Abbe refractometry
[2] = Liquid; for mass density: 298.15 K, 101.33 kPa; for vapor or sublimation pressure: Ebulliometric method (Recirculating still)

| refractive index [1] | mass density [2] [kg/m3] | vapor or sublimation pressure ([2]; 330 K) [kPa] | vapor or sublimation pressure ([2]; 340 K) [kPa] | SMILES |
| --- | --- | --- | --- | --- |
| 1.38894 ± 0.00072 | 687.79 ± 0.41 | 25.47 ± 0.14 | 36.64 ± 0.19 | CC(C)CC(C)(C)C [2,2,4-trimethylpentane] |
| 1.3862 ± 0.00072 | 799.55 ± 0.45 | 27.69 ± 0.16 | 40.45 ± 0.2 | CC(=O)C(C)C [3-methyl-2-butanone] |
| 1.37504 ± 0.00072 | 780.91 ± 0.31 | 33.25 ± 0.19 | 52.97 ± 0.26 | CC(C)O [propan-2-ol] |
